Measurements published in patent publication US11524938B2, “Aromatic sulfonamide derivatives” (Bayer Pharma Aktiengesellschaft, priority 2016, dated 2022).
Values joined by “and” are separate entries in the source; they are usually repeats but may differ in a detail not shown here. Equal values may be shown once.

Target: T1, human P2X4 (Homo sapiens, UniProt Q99571)
T1 sequence (Q99571 1-388): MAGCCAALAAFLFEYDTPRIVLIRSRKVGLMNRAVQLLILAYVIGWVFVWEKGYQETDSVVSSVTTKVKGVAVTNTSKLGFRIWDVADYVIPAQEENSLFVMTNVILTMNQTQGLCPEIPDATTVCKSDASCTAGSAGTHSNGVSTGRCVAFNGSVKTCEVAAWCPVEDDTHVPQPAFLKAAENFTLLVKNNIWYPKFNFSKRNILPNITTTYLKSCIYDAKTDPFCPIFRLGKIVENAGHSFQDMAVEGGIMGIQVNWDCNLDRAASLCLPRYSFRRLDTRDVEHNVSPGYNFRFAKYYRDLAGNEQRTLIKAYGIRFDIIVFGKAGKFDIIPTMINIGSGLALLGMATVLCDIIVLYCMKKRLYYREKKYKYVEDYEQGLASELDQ
Assay: Human P2X4 HEK Cell FLIPR Assay
Assay type: cell-based
Details: agonist Bz-ATP at EC80; for Emax: HEK293, HEK293 cells, percentage of maximal inhibition, read-out: Human P2X4 HEK Cells (FLIPR Assay) avg Efficacy [%]; for IC50: HEK293 cells, individual values listed where some fall outside detection range
How it was run: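 Calcium flux read by FLIPR for 120 sec after Bz-ATP challenge at EC80 (established each assay day), following 30 min room-temperature compound preincubation in dye-loaded stable human P2X4 HEK293 cells. Peak RFU over basal normalized to agonist control; IC50, maximal inhibition and Hill coefficient from triplicate means.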

Row | Structure (SMILES) | Emax | IC50
1 | NS(=O)(=O)c1cc(NC(=O)Cc2cccc(C(F)(F)F)c2Cl)ccc1-n1cc(C(F)(F)F)cn1 [Example 131, 2-[2-Chloro-3-(trifluoromethyl)phenyl]-N-{3-sulfamoyl-4-[4-(trifluoromethyl)-1H-pyrazol-1-yl]phenyl}acetamide] | 58% | 155 nM
2 | NS(=O)(=O)c1c(-c2cnn(C(F)F)c2)ccc(NC(=O)Cc2ccccc2Cl)c1C(F)(F)F [Example 489, 2-(2-Chlorophenyl)-N-{4-[1-(difluoromethyl)-1H-pyrazol-4-yl]-3-sulfamoyl-2-(trifluoromethyl)phenyl}acetamide] | 83% | 2060 nM
3 | CC(C(=O)Nc1cnn(-c2ccc(NC(=O)Cc3ccccc3Cl)cc2S(N)(=O)=O)c1)C(F)(F)F (single isomer, unassigned) [Example 509, N-[1-(4-{[(2-Chlorophenyl)acetyl]amino}-2-sulfamoylphenyl)-1H-pyrazol-4-yl]-3,3,3-trifluoro-2-methylpropanamide] | 71% | 326 nM
4 | N#Cc1cnn(-c2ccc(NC(=O)Cc3ccccc3OC(F)F)cc2S(N)(=O)=O)c1 [Example 203, N-[4-(4-Cyano-1H-pyrazol-1-yl)-3-sulfamoylphenyl]-2-[2-(difluoromethoxy)phenyl]-acetamide] | 86% | 99 nM
5 | Cc1cc(O)nn1-c1ccc(NC(=O)Cc2ccccc2Cl)cc1S(N)(=O)=O [Example 546, 2-(2-Chlorophenyl)-N-[4-(3-hydroxy-5-methyl-1H-pyrazol-1-yl)-3-sulfamoylphenyl]acetamide] | 75% | 97 nM
6 | N#Cc1cnn(-c2ccc(NC(=O)Cc3ccc(C(F)F)cc3)cc2S(N)(=O)=O)c1 [Example 219, N-[4-(4-Cyano-1H-pyrazol-1-yl)-3-sulfamoylphenyl]-2-[4-(difluoromethyl)-phenyl]acetamide] | 65% | 250 nM
7 | NS(=O)(=O)c1cc(NC(=O)Cc2ccccc2Br)ccc1-n1cc(Cl)cn1 [Example 74, 2-(2-Bromophenyl)-N-[4-(4-chloro-1H-pyrazol-1-yl)-3-sulfamoylphenyl]acetamide] | 84% | 49 nM
8 | NS(=O)(=O)c1cc(NC(=O)Cc2ccccc2Cl)ccc1-n1cnc(C2CC2)n1 [Example 36, (2-Chlorophenyl)-N-[4-(3-cyclopropyl-1H-1,2,4-triazol-1-yl)-3-sulfamoylphenyl]-acetamide] | 81% | 667 nM
9 | NS(=O)(=O)c1cc(NC(=O)Cc2ccccc2Cl)ccc1-n1cnc2cnccc21 [Example 45, 2-(2-Chlorophenyl)-N-[4-(1H-imidazo[4,5-c]pyridin-1-yl)-3-sulfamoylphenyl]-acetamide] | 74% | 75 nM
10 | NS(=O)(=O)c1cc(NC(=O)Cc2ccccc2Cl)ccc1-c1cnc(C2CC2)nc1 [Example 308, 2-(2-Chlorophenyl)-N-[4-(2-cyclopropylpyrimidin-5-yl)-3-sulfamoylphenyl]acetamide] | 91% | 64 nM
11 | N#Cc1cnn(-c2ccc(NC(=O)Cc3c(Cl)cccc3Cl)cc2S(N)(=O)=O)c1 [Example 187, N-[4-(4-Cyano-1H-pyrazol-1-yl)-3-sulfamoylphenyl]-2-(2,6-dichlorophenyl)acetamide] | 84% | 33 nM
12 | NS(=O)(=O)c1cc(NC(=O)Cc2ccc(F)c(F)c2)ccc1-n1cc(Cl)cn1 [Example 81, N-[4-(4-Chloro-1H-pyrazol-1-yl)-3-sulfamoylphenyl]-2-(3,4-difluorophenyl)acetamide] | 40% | > 25000 nM
13 | C[C@H]1CC[C@H](C)N1c1cnn(-c2ccc(NC(=O)Cc3ccccc3Cl)cc2S(N)(=O)=O)c1 (single isomer, unassigned) [Example 512, 2-(2-Chlorophenyl)-N-(4-{4-[(trans)-2,5-dimethylpyrrolidin-1-yl]-1H-pyrazol-1-yl}-3-sulfamoylphenyl)acetamide] | 76% | 4250 nM
14 | NS(=O)(=O)c1cc(NC(=O)Cc2cc(F)c(F)cc2Cl)ccc1-n1cc(Cl)cn1 [Example 93, 2-(2-Chloro-4,5-difluorophenyl)-N-[4-(4-chloro-1H-pyrazol-1-yl)-3-sulfamoylphenyl]-acetamide] | 73% | 74 nM
15 | NS(=O)(=O)c1cc(NC(=O)Cc2ccccc2Cl)ccc1-c1nc(C(F)(F)F)no1 [Example 521, 2-(2-Chlorophenyl)-N-{3-sulfamoyl-4-[3-(trifluoromethyl)-1,2,4-oxadiazol-5-yl]phenyl}acetamide] | 52% | 6.9 µM and 17.2 µM and > 25 µM (4×)
16 | NS(=O)(=O)c1cc(NC(=O)Cc2ccccc2Cl)ccc1-n1nc2cc(F)cc(F)c2n1 [Example 482, 2-(2-Chlorophenyl)-N-[4-(4,6-difluoro-2H-benzotriazol-2-yl)-3-sulfamoylphenyl]acetamide] | 73% | 2340 nM

Row | Structure (SMILES) | Emax | IC50
17 | N#Cc1cnn(-c2ccc(NC(=O)Cc3c(O)cccc3Cl)cc2S(N)(=O)=O)c1 [Example 557, 2-(2-Chloro-6-hydroxyphenyl)-N-[4-(4-cyano-1H-pyrazol-1-yl)-3-sulfamoylphenyl]acetamide] | 89% | 11 nM
18 | NS(=O)(=O)c1cc(NC(=O)Cc2cc(Cl)ccc2Cl)ccc1-n1cc(Cl)cn1 [Example 99, N-[4-(4-Chloro-1H-pyrazol-1-yl)-3-sulfamoylphenyl]-2-(2,5-dichlorophenyl)acetamide] | 87% | 499 nM
19 | NS(=O)(=O)c1cc(NC(=O)Cc2ccccc2Br)ccc1-c1cncc(C(F)(F)F)c1 [Example 449, 2-(2-Bromophenyl)-N-{3-sulfamoyl-4-[5-(trifluoromethyl)pyridin-3-yl]phenyl}acetamide] | 73% | 135 nM
20 | Cc1ncn(-c2ccc(NC(=O)Cc3ccccc3Cl)cc2S(N)(=O)=O)n1 [Example 5, 2-(2-Chlorophenyl)-N-[4-(3-methyl-1H-1,2,4-triazol-1-yl)-3-sulfamoylphenyl]-acetamide] | 91% | 249 nM
21 | NS(=O)(=O)c1cc(NC(=O)Cc2ccc(Cl)cc2Cl)ccc1-n1ncc(C(F)(F)F)n1 [Example 416, 2-(2,4-Dichlorophenyl)-N-{3-sulfamoyl-4-[4-(trifluoromethyl)-2H-1,2,3-triazol-2-yl]phenyl}acetamide] | 51% | 8.3 µM and 17.8 µM and > 25 µM (2×)
22 | NS(=O)(=O)c1cc(NC(=O)Cc2cccc(F)c2)ccc1-n1cc(C(F)(F)F)cn1 [Example 114, 2-(3-Fluorophenyl)-N-{3-sulfamoyl-4-[4-(trifluoromethyl)-1H-pyrazol-1-yl]phenyl}-acetamide] | 69% | 367 nM
23 | COCCc1cnn(-c2ccc(NC(=O)Cc3ccccc3Cl)cc2S(N)(=O)=O)c1 [Example 256, 2-(2-Chlorophenyl)-N-{4-[4-(2-methoxyethyl)-1H-pyrazol-1-yl]-3-sulfamoylphenyl}-acetamide] | 83% | 130 nM
24 | NS(=O)(=O)c1cc(NC(=O)Cc2ccccc2F)ccc1-n1ncc2ccccc21 [Example 398, 2-(2-Fluorophenyl)-N-[4-(1H-indazol-1-yl)-3-sulfamoylphenyl]acetamide] | 57% | 207 nM
25 | Cn1cc(-c2ccc(NC(=O)Cc3ccccc3F)cc2S(N)(=O)=O)cn1 [Example 374, 2-(2-Fluorophenyl)-N-[4-(1-methyl-1H-pyrazol-4-yl)-3-sulfamoylphenyl]acetamide] | 82% | 386 nM
26 | CCc1ncn(-c2ccc(NC(=O)Cc3ccccc3Cl)cc2S(N)(=O)=O)n1 [Example 35, 2-(2-Chlorophenyl)-N-[4-(3-ethyl-1H-1,2,4-triazol-1-yl)-3-sulfamoylphenyl]acetamide] | 90% | 224 nM
27 | Cc1cc(C(F)(F)F)nn1-c1ccc(NC(=O)Cc2ccccc2Cl)cc1S(N)(=O)=O [Example 15, 2-(2-Chlorophenyl)-N-{4-[5-methyl-3-(trifluoromethyl)-1H-pyrazol-1-yl]-3-sulfamoylphenyl}acetamide] | 99% | 379 nM
28 | CC(C)OCCn1cc(-c2ccc(NC(=O)Cc3ccccc3Cl)cc2S(N)(=O)=O)cn1 [Example 286, 2-(2-Chlorophenyl)-N-(4-{1-[2-(propan-2-yloxy)ethyl]-1H-pyrazol-4-yl}-3-sulfamoylphenyl)acetamide] | 87% | 6 nM
29 | Cc1cnn(-c2ccc(NC(=O)Cc3ccccc3Cl)cc2S(N)(=O)=O)c1 [Example 248, 2-(2-Chlorophenyl)-N-[4-(4-methyl-1H-pyrazol-1-yl)-3-sulfamoylphenyl]acetamide] | 74% | 84 nM
30 | NS(=O)(=O)c1cc(NC(=O)Cc2ccc(F)c(F)c2)ccc1-c1ccc(Cl)nc1 [Example 468, N-[4-(6-Chloropyridin-3-yl)-3-sulfamoylphenyl]-2-(3,4-difluorophenyl)acetamide] | 97% | 278 nM
31 | NS(=O)(=O)c1cc(NC(=O)Cc2ccc(F)cc2Cl)ccc1-n1cc(Br)cn1 [Example 68, N-[4-(4-Bromo-1H-pyrazol-1-yl)-3-sulfamoylphenyl]-2-(2-chloro-4-fluorophenyl)-acetamide] | 75% | 128 nM
